Laboratory results taken from patent publication US6706740B2, “Fungicidal heterocyclic aromatic amides and their compositions, methods of use and preparation” (Dow AgroSciences LLC, priority 1999, dated 2004).

System: Mycosphaerella graminicola (Septoria tritici—SEPTTR)
Test: In vitro fungal growth inhibition, Mycosphaerella graminicola (SEPTTR)
Type: cell-based
Conditions: Zymoseptoria tritici; 25 ppm in the growth medium; read-out: SEPTTR in vitro Growth Inhibition
With `CC(C)C(=O)O[C@H]1[C@H](C)OC(=O)[C@@H](NC(=O)c2cn(C)nc2O)COC(=O)[C@@H]1Cc1ccccc1` [Compound 558] the inhibition at 25 ppm was < 80%.
For `O=C(Nc1ccccc1Oc1ccccc1)c1cccnc1O` [Compound 520], the inhibition at 25 ppm was < 80%.
In the case of `CC1(C)CC(NC(=O)c2nsnc2O)CC(C)(C)C1` [Compound 552], the inhibition at 25 ppm is reported as > 80%.
With `CC(=O)Oc1cccnc1C(=O)NC1CCC(OC(C)=O)CC1` (stereo not drawn) [Compound 564] the inhibition at 25 ppm was < 80%.

System: Ustilago maydis (USTIMA)
Test: microbe, parasite or virus in culture
Type: cell-based
Conditions: Mycosarcoma maydis, read-out: USTIMA in vitro Growth Inhibition
In the case of `CC(C)C(=O)O[C@H]1[C@H](C)OC(=O)[C@@H](NC(=O)c2cn(C)nc2O)COC(=O)[C@@H]1Cc1ccccc1` [Compound 558], the inhibition at 25 ppm is reported as < 80%.
For `O=C(Nc1ccccc1Oc1ccccc1)c1cccnc1O` [Compound 520], the inhibition at 25 ppm was < 80%.
In the case of `CC1(C)CC(NC(=O)c2nsnc2O)CC(C)(C)C1` [Compound 552], the inhibition at 25 ppm is reported as < 80%.
With `CC(=O)Oc1cccnc1C(=O)NC1CCC(OC(C)=O)CC1` (stereo not drawn) [Compound 564] the inhibition at 25 ppm was < 80%.

System: Magnaporthe grisea (Pyricularia oryzae—PYRIOR)
Test: microbe, parasite or virus in culture
Type: cell-based
Conditions: Pyricularia oryzae, read-out: PYRIOR in vitro Growth Inhibition
For `CC(C)C(=O)O[C@H]1[C@H](C)OC(=O)[C@@H](NC(=O)c2cn(C)nc2O)COC(=O)[C@@H]1Cc1ccccc1` [Compound 558], the inhibition at 25 ppm was < 80%.
With `O=C(Nc1ccccc1Oc1ccccc1)c1cccnc1O` [Compound 520] the inhibition at 25 ppm was < 80%.
In the case of `CC1(C)CC(NC(=O)c2nsnc2O)CC(C)(C)C1` [Compound 552], the inhibition at 25 ppm is reported as > 80%.
With `CC(=O)Oc1cccnc1C(=O)NC1CCC(OC(C)=O)CC1` (stereo not drawn) [Compound 564] the inhibition at 25 ppm was < 80%.

System: Puccinia recondita—PUCCRT
Test: Brown Rust of Wheat, in vivo whole plant, 24 Hour Protectant
Conditions: Puccinia; wheat plants sprayed at 100 ppm, inoculated after 24 hours; control of fungal infection vs untreated plants; read-out: PUCCRT in vivo 1 Day Protectant
For `CC(C)C(=O)O[C@H]1[C@H](C)OC(=O)[C@@H](NC(=O)c2cn(C)nc2O)COC(=O)[C@@H]1Cc1ccccc1` [Compound 558], the pest or weed control at 100 ppm was 25 to 74%.
In the case of `O=C(Nc1ccccc1Oc1ccccc1)c1cccnc1O` [Compound 520], the pest or weed control at 100 ppm is reported as < 25%.
With `CC1(C)CC(NC(=O)c2nsnc2O)CC(C)(C)C1` [Compound 552] the pest or weed control at 100 ppm was < 25%.
In the case of `CC(=O)Oc1cccnc1C(=O)NC1CCC(OC(C)=O)CC1` (stereo not drawn) [Compound 564], the pest or weed control at 100 ppm is reported as < 25%.

System: Stagonospora nodorum (Leptosphaeria nodorum—LEPTNO)
Test: In vitro fungal growth inhibition, Stagonospora nodorum (LEPTNO)
Type: cell-based
Conditions: Leptosphaeria; 25 ppm in the growth medium; read-out: LEPTNO in vitro Growth Inhibition
With `CC(C)C(=O)O[C@H]1[C@H](C)OC(=O)[C@@H](NC(=O)c2cn(C)nc2O)COC(=O)[C@@H]1Cc1ccccc1` [Compound 558] the inhibition at 25 ppm was < 80%.
With `O=C(Nc1ccccc1Oc1ccccc1)c1cccnc1O` [Compound 520] the inhibition at 25 ppm was < 80%.
For `CC1(C)CC(NC(=O)c2nsnc2O)CC(C)(C)C1` [Compound 552], the inhibition at 25 ppm was > 80%.
In the case of `CC(=O)Oc1cccnc1C(=O)NC1CCC(OC(C)=O)CC1` (stereo not drawn) [Compound 564], the inhibition at 25 ppm is reported as < 80%.

System: Leptosphaeria nodorum—LEPTNO
Test: Glume Blotch of Wheat, in vivo whole plant, 24 Hour Protectant
Conditions: Leptosphaeria; wheat plants sprayed at 100 ppm, inoculated after 24 hours; control of fungal infection vs untreated plants; read-out: LEPTNO in vivo 1 Day Protectant
Molecule `CC(C)C(=O)O[C@H]1[C@H](C)OC(=O)[C@@H](NC(=O)c2cn(C)nc2O)COC(=O)[C@@H]1Cc1ccccc1` [Compound 558] has a pest or weed control at 100 ppm of 25 to 74%.
Work on `O=C(Nc1ccccc1Oc1ccccc1)c1cccnc1O` [Compound 520] yielded a pest or weed control at 100 ppm of 25 to 74%.
With `CC1(C)CC(NC(=O)c2nsnc2O)CC(C)(C)C1` [Compound 552] the pest or weed control at 100 ppm was < 25%.
For `CC(=O)Oc1cccnc1C(=O)NC1CCC(OC(C)=O)CC1` (stereo not drawn) [Compound 564], the pest or weed control at 100 ppm was 25 to 74%.

System: Erysiphe graminis—ERYSGT
Test: Powdery Mildew of Wheat, in vivo whole plant, 24 Hour Protectant
Conditions: Erysiphe; wheat plants sprayed at 100 ppm, inoculated after 24 hours; control of fungal infection vs untreated plants; read-out: ERYSGT in vivo 1 Day Protectant
With `CC(C)C(=O)O[C@H]1[C@H](C)OC(=O)[C@@H](NC(=O)c2cn(C)nc2O)COC(=O)[C@@H]1Cc1ccccc1` [Compound 558] the pest or weed control at 100 ppm was < 25%.
For `O=C(Nc1ccccc1Oc1ccccc1)c1cccnc1O` [Compound 520], the pest or weed control at 100 ppm was < 25%.
`CC1(C)CC(NC(=O)c2nsnc2O)CC(C)(C)C1` [Compound 552] gave a pest or weed control at 100 ppm of 25 to 74%.
With `CC(=O)Oc1cccnc1C(=O)NC1CCC(OC(C)=O)CC1` (stereo not drawn) [Compound 564] the pest or weed control at 100 ppm was < 25%.

System: Septoria tritici—SEPTTR
Test: Leaf Blotch of Wheat, in vivo whole plant, 24 Hour Protectant
Conditions: Zymoseptoria tritici, 24 h, wheat plants sprayed at 100 ppm, inoculated after 24 hours; control of fungal infection vs untreated plants; read-out: SEPTTR in vivo 1 Day Protectant
`CC(C)C(=O)O[C@H]1[C@H](C)OC(=O)[C@@H](NC(=O)c2cn(C)nc2O)COC(=O)[C@@H]1Cc1ccccc1` [Compound 558] gave a pest or weed control at 100 ppm of 25 to 74%.
With `O=C(Nc1ccccc1Oc1ccccc1)c1cccnc1O` [Compound 520] the pest or weed control at 100 ppm was < 25%.
With `CC1(C)CC(NC(=O)c2nsnc2O)CC(C)(C)C1` [Compound 552] the pest or weed control at 100 ppm was < 25%.
In the case of `CC(=O)Oc1cccnc1C(=O)NC1CCC(OC(C)=O)CC1` (stereo not drawn) [Compound 564], the pest or weed control at 100 ppm is reported as < 25%.

System: Phytophthora infestans (PHYTIN)
Test: microbe, parasite or virus in culture
Type: cell-based
Conditions: Phytophthora infestans, read-out: PHYTIN in vitro Growth Inhibition
In the case of `CC(C)C(=O)O[C@H]1[C@H](C)OC(=O)[C@@H](NC(=O)c2cn(C)nc2O)COC(=O)[C@@H]1Cc1ccccc1` [Compound 558], the inhibition at 25 ppm is reported as < 80%.
For `O=C(Nc1ccccc1Oc1ccccc1)c1cccnc1O` [Compound 520], the inhibition at 25 ppm was < 80%.
In the case of `CC1(C)CC(NC(=O)c2nsnc2O)CC(C)(C)C1` [Compound 552], the inhibition at 25 ppm is reported as > 80%.
With `CC(=O)Oc1cccnc1C(=O)NC1CCC(OC(C)=O)CC1` (stereo not drawn) [Compound 564] the inhibition at 25 ppm was < 80%.

System: Phytophthora infestans—PHYTIN
Test: whole plant or invertebrate
Type: in vivo
Conditions: Phytophthora, in Solanum lycopersicum, 24 h, read-out: PHYTIN in vivo 1 Day Protectant
With `CC(C)C(=O)O[C@H]1[C@H](C)OC(=O)[C@@H](NC(=O)c2cn(C)nc2O)COC(=O)[C@@H]1Cc1ccccc1` [Compound 558] the pest or weed control at 100 ppm was < 25%.
For `O=C(Nc1ccccc1Oc1ccccc1)c1cccnc1O` [Compound 520], the pest or weed control at 100 ppm was < 25%.
`CC1(C)CC(NC(=O)c2nsnc2O)CC(C)(C)C1` [Compound 552] gave a pest or weed control at 100 ppm of 25 to 74%.
For `CC(=O)Oc1cccnc1C(=O)NC1CCC(OC(C)=O)CC1` (stereo not drawn) [Compound 564], the pest or weed control at 100 ppm was < 25%.

System: not given
Test: not given
Conditions: not given
In the case of `CC(C)C(=O)O[C@H]1[C@H](C)OC(=O)[C@@H](NC(=O)c2cn(C)nc2O)COC(=O)[C@@H]1Cc1ccccc1` [Compound 558], the melting point is reported as 199 to 205 °C.
In the case of `O=C(Nc1ccccc1Oc1ccccc1)c1cccnc1O` [Compound 520], the melting point is reported as 234 to 235 °C.
In the case of `CC1(C)CC(NC(=O)c2nsnc2O)CC(C)(C)C1` [Compound 552], the melting point is reported as 96 to 102 °C.
Work on `CC(=O)Oc1cccnc1C(=O)NC1CCC(OC(C)=O)CC1` (stereo not drawn) [Compound 564] yielded a melting point of 158 to 161 °C.

System: Rhizoctonia solani (RHIZSO)
Test: microbe, parasite or virus in culture
Type: cell-based
Conditions: Rhizoctonia solani, read-out: RHIZSO in vitro Growth Inhibition
For `CC(C)C(=O)O[C@H]1[C@H](C)OC(=O)[C@@H](NC(=O)c2cn(C)nc2O)COC(=O)[C@@H]1Cc1ccccc1` [Compound 558], the inhibition at 25 ppm was < 80%.
For `O=C(Nc1ccccc1Oc1ccccc1)c1cccnc1O` [Compound 520], the inhibition at 25 ppm was < 80%.
For `CC1(C)CC(NC(=O)c2nsnc2O)CC(C)(C)C1` [Compound 552], the inhibition at 25 ppm was > 80%.
In the case of `CC(=O)Oc1cccnc1C(=O)NC1CCC(OC(C)=O)CC1` (stereo not drawn) [Compound 564], the inhibition at 25 ppm is reported as < 80%.
